Columns and labels:
Format in all cases: biochemical
[1] = target: T1, Lipase from Rhizomucor miehei (Rhizomucor miehei, UniProt P19515); conditions: 37 C, 3 hours, 0.025% Triton X100, 5 mM Tris pH 8, HPLC/MS
T1 sequence (P19515 95-363): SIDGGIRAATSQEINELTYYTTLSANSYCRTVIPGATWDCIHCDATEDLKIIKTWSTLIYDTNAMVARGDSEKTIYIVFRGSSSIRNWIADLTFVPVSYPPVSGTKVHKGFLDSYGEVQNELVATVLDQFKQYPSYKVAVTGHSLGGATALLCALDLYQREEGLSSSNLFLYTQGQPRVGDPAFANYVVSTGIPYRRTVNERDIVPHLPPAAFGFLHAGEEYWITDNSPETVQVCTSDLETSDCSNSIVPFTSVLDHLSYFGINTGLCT

[2] = target: Lipase from Thermomyces lanuginosus (LTL) (Thermomyces lanuginosus, UniProt O59952); conditions: pH 8
[3] = target: Lipase from Pseudomonas cepacia (Burkholderia cepacia, UniProt P22088); conditions: 37 C, 3 hours, 0.025% Triton X100, 5 mM Tris pH 8, HPLC/MS
Sequence of Lipase from Pseudomonas cepacia (P22088 45-364): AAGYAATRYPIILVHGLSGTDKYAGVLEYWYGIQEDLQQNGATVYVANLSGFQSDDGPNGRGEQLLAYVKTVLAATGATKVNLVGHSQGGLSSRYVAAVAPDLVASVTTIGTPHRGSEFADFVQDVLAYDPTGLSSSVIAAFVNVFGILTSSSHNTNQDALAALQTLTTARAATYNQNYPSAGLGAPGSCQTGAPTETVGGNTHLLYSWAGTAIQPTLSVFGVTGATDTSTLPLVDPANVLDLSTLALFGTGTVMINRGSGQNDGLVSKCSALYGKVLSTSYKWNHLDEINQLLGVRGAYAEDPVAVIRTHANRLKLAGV

Sequence of Lipase from Thermomyces lanuginosus (LTL) (O59952 23-291): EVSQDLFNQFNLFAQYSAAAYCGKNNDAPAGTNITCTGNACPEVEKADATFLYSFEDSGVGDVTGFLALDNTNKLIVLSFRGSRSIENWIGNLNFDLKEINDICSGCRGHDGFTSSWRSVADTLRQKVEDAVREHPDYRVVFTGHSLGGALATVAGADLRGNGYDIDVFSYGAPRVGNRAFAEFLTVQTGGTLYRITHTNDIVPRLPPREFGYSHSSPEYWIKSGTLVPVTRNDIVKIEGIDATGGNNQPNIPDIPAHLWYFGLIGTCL

SMILES: C=Cc1c(C)c2cc3nc(c4c5[nH]c(cc6nc(cc1[nH]2)C(C)=C6CC)c(C)c5C(=O)C4)[C@@H](CCC(=O)O[C@H](COC(=O)CCCCCCCCCCCCCCC)COP(=O)([O-])OCC[N+](C)(C)C)[C@@H]3C [sn-2 pyro-lipid]
- cleavage of pyro-lipid regioisomer by lipase from Rhizomucor miehei [1]: preferentially cleaved
- cleavage of pyro-lipid regioisomer by LTL [2]: selectively cleaved
- cleavage of pyro-lipid regioisomer by lipase from Pseudomonas cepacia [3]: preferentially cleaved

Reference: patent publication US9017974B2, “Method for the synthesis of porphyrin-phospholipid conjugates” (priority 2011, dated 2015)
